In patent US10258048B2, “Bacillus sp. strain with antifungal, antibacterial and growth promotion activity” (Marrone Bio Innovations, Inc, priority 2012, dated 2019):

What follows are compounds tested on Bacillus sp. isolate F727 (assay: Antibiotic susceptibility of Bacillus sp. isolate F727, antibiotic discs on Mueller-Hinton agar). Conditions: pre-loaded antibiotic discs (load in ug); 25° C., 48 hours.
Type: cell-based
Parameters: key: +++ indicates highly susceptible (no growth); ++ indicates moderately susceptible (reduced growth); − indicates no susceptibility
Description: Antibiotic susceptibility of Bacillus sp. isolate F727 was tested using antibiotic discs on Muller-Hinton medium. A loopful of F727 was resuspended in 1 mL of sterile deionized water, and 100 μL of this suspension was streaked onto a Mueller-Hinton agar plate. After absorption of the streak into the agar, pre-loaded antibiotic discs were placed on the plate, and the plate was incubated at 25° C. for 48 hours.
Gentamicin was tested, and the “Susceptibility of Bacillus sp. F727 to various antibiotics” value (“Susceptibility of Bacillus sp. F727” for short) was “+++”. In the case of `NC[C@H]1O[C@H](O[C@H]2[C@H](O)[C@@H](O[C@H]3O[C@H](CO)[C@@H](O)[C@H](N)[C@H]3O)[C@H](N)C[C@@H]2N)[C@H](O)[C@@H](O)[C@@H]1O` [Kanamycin], the “Susceptibility of Bacillus sp. F727” value is reported as “+++”. For `O=C(O)c1cn(C2CC2)c2cc(N3CCNCC3)c(F)cc2c1=O` [Ciprofloxacin], the “Susceptibility of Bacillus sp. F727” value was “+++”. For Sulphamethoxazole-Trimethoprim, the “Susceptibility of Bacillus sp. F727” value was “+++”. `CN(C)[C@@H]1C(O)=C(C(N)=O)C(=O)[C@@]2(O)C(O)=C3C(=O)c4c(O)cccc4[C@@](C)(O)[C@H]3C[C@@H]12` [Tetracycline] was tested, and the “Susceptibility of Bacillus sp. F727” value was “+++”. `CCN1CCN(C(=O)N[C@@H](C(=O)N[C@@H]2C(=O)N3[C@@H]2SC(C)(C)[C@@H]3C(=O)O)c2ccccc2)C(=O)C1=O` [Piperacillin] was tested, and the “Susceptibility of Bacillus sp. F727” value was “+++”. In the case of Penicillin, the “Susceptibility of Bacillus sp. F727” value is reported as “+++”. With `[H]/N=C(/N)N[C@H]1[C@H](O)[C@@H](O)[C@H](O[C@@H]2O[C@@H](C)[C@](O)(C=O)[C@H]2O[C@@H]2O[C@@H](CO)[C@H](O)[C@@H](O)[C@@H]2NC)[C@@H](N/C(N)=N\[H])[C@@H]1O` [Streptomycin] the “Susceptibility of Bacillus sp. F727” value was “++”. In the case of `CC1(C)S[C@@H]2[C@H](NC(=O)[C@H](N)c3ccccc3)C(=O)N2[C@H]1C(=O)O` [Ampicillin], the “Susceptibility of Bacillus sp. F727” value is reported as “+++”. `CN(C)[C@@H]1C(O)=C(C(N)=O)C(=O)[C@@]2(O)C(O)=C3C(=O)c4c(O)cccc4[C@@](C)(O)[C@H]3[C@H](O)[C@@H]12` [Oxytetracycline] was tested, and the “Susceptibility of Bacillus sp. F727” value was “+++”. With `O=C(N[C@H](CO)[C@H](O)c1ccc([N+](=O)[O-])cc1)C(Cl)Cl` [Chloramphenicol] the “Susceptibility of Bacillus sp. F727” value was “+++”. `C[C@@H](O)[C@H]1C(=O)N2C(C(=O)O)=C(SCCN=CN)C[C@H]12` [Imipenem] was tested, and the “Susceptibility of Bacillus sp. F727” value was “+++”. In the case of `CC[C@H]1OC(=O)[C@H](C)[C@@H](O[C@H]2C[C@@](C)(OC)[C@@H](O)[C@H](C)O2)[C@H](C)[C@@H](O[C@@H]2O[C@H](C)C[C@H](N(C)C)[C@H]2O)[C@](C)(O)C[C@@H](C)C(=O)[C@H](C)[C@@H](O)[C@]1(C)O` [Erythromycin], the “Susceptibility of Bacillus sp. F727” value is reported as “+++”. `CO/N=C(\C(=O)N[C@@H]1C(=O)N2C(C(=O)O)=C(COC(N)=O)CS[C@H]12)c1ccco1` [Cefuroxime] was tested, and the “Susceptibility of Bacillus sp. F727” value was “+++”.
